Here are results for 3 compounds from PMC9611726, “Synthesis, Characterization and Biological Investigation of New N-Modified Spinorphin Analogs” (Pharmaceuticals, 2022).

A short description of series [1]: Partition coefficient, shake-flask method, 1-octanol/phosphate buffer. The series is classed as physicochemical. The conditions noted are these: shake-flask 1-octanol/phosphate buffer (NaH2PO4/Na2HPO4), pH 7.41 ± 0.01, 25 °C, system stirred 12 h, absorbance and emission read-out, standard additions. From the text:
The effectiveness of biomolecules is mainly due to specific structural and physicochemical properties. In principle, the properties of peptides/proteins are very diverse and directly related to their bioactivity. […] With the manifestation of hydrophilic properties, the occurrence of a hydration process is possible; swelling, increasing their mass and volume, while it is possible to partially limit the solubility of the molecule, in which case the peptide molecule becomes more unstable. At the isoelectric point, peptides have the least ability to bind water, i.e., to hydrate; the hydration shell around the peptide molecules breaks down so that they combine to form, for example, aggregates. When the pH of the medium changes, the peptide macromolecule is charged, and its hydration capacity changes. […] Due to the obtained values, the studied compounds can be arranged in the following sequence from hydrophilic to hydrophobic (lipophilic): Rh-S > Rh-S5 > Rh-S6. This corresponds to the data from the morphology of the compound, where an analogous order of increasing porosity/hydrophilicity was found (Figure 3). It can be seen that the replacement of natural proline with unnatural steric restricted amino acids such as 1-aminocyclopentanecarboxylic acid (Ac5c) and 1-aminocyclohexanecarboxylic acid (Ac6c) (neuropeptides Rh-S5 and Rh-S6) leads to an increase in lipophilicity, which would assist passage through the brain barrier and increase the efficiency of the molecule. […]
The partition coefficients of the spinorphin-rhodamine derivatives were determined in a 1-octanol/phosphate buffer system (NaH2PO4/Na2HPO4, pH 7.41 ± 0.01). […] After separation, the absorbance and emission of the solutions of the two phases were measured and the amount of dissolved analyte was determined by the method of standard additions. […] The partition coefficient was calculated by the following equation: P = C^oct/buf/C^buf/oct, where C^oct/buf and C^buf/oct are the molar concentrations of the solute in the mutually saturated phases of 1-octanol and buffer.

Series [2] in a line: Acid-base constants (pKa) and isoelectric point (pI) by fluorimetry, confirmed by UV-Vis. The series is classed as physicochemical. The conditions noted are these: for pKa2 / pKa1: fluorimetric, inflection of I/pH curve, confirmed by UV-Vis, average values from repeatable results; for pKa2: pH 1 to 12, rhodamine part (λex 560 nm); for pKa1: pH 1 to 12, tryptophan emission (λex 275 nm); for pI: isoelectric point calculated from the protolytic constants. The protocol: When studying the fluorescence properties, the emission spectra were recorded upon excitation at two wavelengths: λ^ex = 275 nm where tryptophan/tyrosine fluoresces, and at λ^ex = 560 nm where excitation of the rhodamine moiety is possible (Figure 5 and Figure 6). […] With both amino acids present in the indicated complex mixture, the fluorescence in the 300–400 nm range is more likely to originate from the indole group of the tryptophan residue, which is known to emit at ~350 nm at an excitation wavelength of 280 nm. Moreover, spectra were recorded at different pHs of the medium to determine the study compounds’ acid constants and isoelectric points. All compounds show similar behavior of fluorescence properties with minimal difference in wavelength where the compound absorbs in the visible region (1–2 nm). A strong decrease in the intensity of the emission maximum at λ^em = 585 nm is observed with an increase in the pH of the medium, which is due to the structural changes associated with the closure of the spirolactam ring at rhodamine. pH also affects the fluorescence emission intensity of the tryptophan/tyrosine spectral line. […] The obtained emission spectra at different pHs helped us to determine the acidity constants of the obtained compounds. pK values were obtained by selecting the inflection points of the I/pH curve at two wavelengths: 275 nm, where tryptophan emits, and 575 nm for the rhodamine part, respectively (Figure 5 and Figure 6, inserted graphs). At these points the concentrations of conjugated acid and base are equal, i.e., [HRh-S] = [Rh-S-], and according to the known relationship […] at this point pKa = рН. Equations (1) and (2) given in the experimental part were also used to calculate the acid constants to confirm the values. […] The proven higher values of the constants given in [24] are due to the influence of the –OH group of tyrosine, located near the spirolactam ring of rhodamine and leading to its more effortless opening. […] Based on the obtained values of the protolytic constants, the isoelectric points were calculated where the compounds would show zero charge and reduced solubility (Table 1). […] Stokes shift, showing the differences between the structure of the fluorophore in the ground S0 state and in the first excited state S1, was also determined as an essential feature for the rhodamine peptide derivatives (Figure 5, Table 2). The Stokes shift for all compounds at the rhodamine moiety is ~859 cm^−1, which is consistent with the rhodamine derivatives known in the literature.
Acid base constants and isoelectric points were determined fluorimetrically and confirmed by UV–Vis analyses. Absorption and emission spectra were recorded on a series of solutions with the same concentration of the peptide derivatives at different pHs (from 1 to 12). The assay data (intensity/absorbance versus pH) were processed with Origin8Pro mathematical software. The pK value were determined using the following equations:log [(Amax − A)/(A − Amin)] = pH − pKa(1) log [(IF max − IF)/(IF − IF min)] = pH – pKa(2) where the minimum (Amin) and the maximum (Amax) absorbances are at 275 nm and 557 nm, respectively, A is the absorbance at the given pH value; Fmax and Fmin are the maximum and minimum fluorescence emission intensity at 356 and 585 nm, respectively, F is the fluorescence intensity at the given pH value.

The test system of series [3] is Candida albicans. Nature of the series: Antifungal activity test, paper disc diffusion. It counts as cell-based. The conditions noted are these: C. albicans, Sabouraud Agar, 20 μL of 50 mg/mL, 24 h. The protocol:
Tests were carried out on the Candida albicans fungus. The concentration of the extract tested was 50 mg/mL. The culture of each test fungus was taken to be tilted using an asepticose needle and rejuvenated in a liquid medium. In each medium, there is a spore density of […]. The prepared medium Sabouraud Agar (SA) in a petri dish with each culture was scratched on the top, then placed on the paper disc (paper disc), and then a peptide sample of 20 μL was placed on the paper disc. It was further incubated for 24 h and the resistance zone formed measured.
On the technique in general: In agar diffusion tests the substance spreads into inoculated agar from a disc or well.

The structures appear in SMILES notation. Where a SMILES comes first, the peptide text is derived from it. [ ]: non-standard residue; d: D form. The star is where a group is joined. X1 = CCN(CC)c1ccc2c(c1)Oc1cc(N(CC)CC)ccc1C2c1ccccc1C(=O)*; Ac6c = NC1(C(=O)O)CCCCC1; Ac5c = NC1(C(=O)O)CCCC1

Consider `CCN(CC)c1ccc2c(c1)Oc1cc(N(CC)CC)ccc1C2c1ccccc1C(=O)N[C@@H](CC(C)C)C(=O)N[C@H](C(=O)N[C@H](C(=O)N[C@@H](Cc1ccc(O)cc1)C(=O)N1CCC[C@H]1C(=O)N[C@@H](Cc1c[nH]c2ccccc12)C(=O)N[C@H](C(N)=O)[C@@H](C)O)C(C)C)C(C)C` [Rh-S, rhodamineB-Leu-Val-Val-Tyr-Pro-Trp-Thr-NH2] (X1-LVVYPWT-NH2), for which, in series [1], the log distribution coefficient (logD) (as a rule, lipophilicity at a set pH, counting ionised and neutral species) came to 0.54. In series [2], the pKa2 was 4.56, the pKa1 is 7.09 and the pI is 5.82. Besides, the “antifungal activity, diameter of the inhibitory zone (in words)” value in series [3] was “slightly higher than the negative control”.

For the compound `CCN(CC)c1ccc2c(c1)Oc1cc(N(CC)CC)ccc1C2c1ccccc1C(=O)N[C@@H](CC(C)C)C(=O)N[C@H](C(=O)N[C@H](C(=O)N[C@@H](Cc1ccc(O)cc1)C(=O)NC1(C(=O)N[C@@H](Cc2c[nH]c3ccccc23)C(=O)N[C@H](C(N)=O)[C@@H](C)O)CCCC1)C(C)C)C(C)C` [Rh-S5, rhodamineB-Leu-Val-Val-Tyr-Ac5c-Trp-Thr-NH2] (X1-LVVY[Ac5c]WT-NH2), the logD in series [1] is -0.168. Further, in series [2], the pKa2 was determined as 5.36, the pKa1 turned out to be 5.11 and the pI is on record as 5.23. The “antifungal activity, diameter of the inhibitory zone (in words)” value in series [3] is on record as “slightly higher than the negative control”.

On to `CCN(CC)c1ccc2c(c1)Oc1cc(N(CC)CC)ccc1C2c1ccccc1C(=O)N[C@@H](CC(C)C)C(=O)N[C@H](C(=O)N[C@H](C(=O)N[C@@H](Cc1ccc(O)cc1)C(=O)NC1(C(=O)N[C@@H](Cc2c[nH]c3ccccc23)C(=O)N[C@H](C(N)=O)[C@@H](C)O)CCCCC1)C(C)C)C(C)C` [Rh-S6, rhodamineB-Leu-Val-Val-Tyr-Ac6c-Trp-Thr-NH2] (X1-LVVY[Ac6c]WT-NH2), for which, in series [1], the logD is -0.197. Besides, in series [2], the pKa2 stood at 4.94, the pKa1 was 6.35 and the pI is given as 5.65. In addition, the “antifungal activity, diameter of the inhibitory zone (in words)” value in series [3] was “slightly higher than the negative control”.
